Laboratory results from PubChem BioAssay (NCI).
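These data come from cells grown in 96-well plates and exposed to compound for 48 hours at five concentrations. The concentration for 50% growth inhibition is given as GI50. TGI denotes the concentration required for complete inhibition of growth.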

Assays:
Experiment in all cases: NCI tumour cell line growth inhibition, 48 h
CAKI-1 renal = test system: CAKI-1 renal
SK-MEL-2 melanoma = test system: SK-MEL-2 melanoma
SK-MEL-28 melanoma = test system: SK-MEL-28 melanoma
HOP-62 NSCLC = test system: HOP-62 NSCLC
KM12 colon = test system: KM12 colon
SK-OV-3 ovarian = test system: SK-OV-3 ovarian
SR leukemia = test system: SR leukemia
HOP-92 NSCLC = test system: HOP-92 NSCLC
SW-620 colon = test system: SW-620 colon
SN12C renal = test system: SN12C renal
CCRF-CEM leukemia = test system: CCRF-CEM leukemia
A549 NSCLC = test system: A549 NSCLC
MCF7 breast = test system: MCF7 breast
M14 melanoma = test system: M14 melanoma
HCC-2998 colon = test system: HCC-2998 colon
NCI-H460 lung = test system: NCI-H460 lung
OVCAR-3 ovarian = test system: OVCAR-3 ovarian
MOLT-4 leukemia = test system: MOLT-4 leukemia
RXF 393 renal = test system: RXF 393 renal
SK-MEL-5 melanoma = test system: SK-MEL-5 melanoma
HCT-116 colon = test system: HCT-116 colon
COLO 205 colon = test system: COLO 205 colon
NCI-H522 lung = test system: NCI-H522 lung
OVCAR-4 ovarian = test system: OVCAR-4 ovarian
SF-539 CNS = test system: SF-539 CNS
NCI-H226 lung = test system: NCI-H226 lung
HT29 colon = test system: HT29 colon
K-562 leukemia = test system: K-562 leukemia
DU-145 prostate = test system: DU-145 prostate
ACHN renal = test system: ACHN renal
UACC-62 melanoma = test system: UACC-62 melanoma
UO-31 renal = test system: UO-31 renal
SF-295 CNS = test system: SF-295 CNS
OVCAR-8 ovarian = test system: OVCAR-8 ovarian
BT-549 breast = test system: BT-549 breast
MALME-3M melanoma = test system: MALME-3M melanoma
MDA-MB-231 breast = test system: MDA-MB-231 breast
A498 renal = test system: A498 renal
U251 CNS = test system: U251 CNS
SNB-19 CNS = test system: SNB-19 CNS
IGROV1 ovarian = test system: IGROV1 ovarian
SNB-75 CNS = test system: SNB-75 CNS
HL-60(TB) leukemia = test system: HL-60(TB) leukemia
HCT-15 colon = test system: HCT-15 colon
MDA-MB-435 = test system: MDA-MB-435
PC-3 prostate = test system: PC-3 prostate
UACC-257 melanoma = test system: UACC-257 melanoma
786-0 renal = test system: 786-0 renal
NCI-H23 lung = test system: NCI-H23 lung
SF-268 CNS = test system: SF-268 CNS
HS 578T breast = test system: HS 578T breast
NCI/ADR-RES ovarian = test system: NCI/ADR-RES ovarian
LOX IMVI melanoma = test system: LOX IMVI melanoma
RPMI-8226 leukemia = test system: RPMI-8226 leukemia
T-47D breast = test system: T-47D breast
OVCAR-5 ovarian = test system: OVCAR-5 ovarian

Compound: O=C(CI)OCC(COC(=O)CI)OC(=O)CI
- GI50 (CAKI-1 renal): 1.96 µM
- TGI (CAKI-1 renal): 3.91 µM
- GI50 (SK-MEL-2 melanoma): 10.3 µM
- TGI (SK-MEL-2 melanoma): 25.5 µM
- GI50 (SK-MEL-28 melanoma): 5.54 µM
- TGI (SK-MEL-28 melanoma): 16 µM
- GI50 (HOP-62 NSCLC): 10.8 µM
- TGI (HOP-62 NSCLC): 27.8 µM
- GI50 (KM12 colon): 11.7 µM
- TGI (KM12 colon): 26.8 µM
- GI50 (SK-OV-3 ovarian): 17.3 µM
- TGI (SK-OV-3 ovarian): 31.1 µM
- GI50 (SR leukemia): 2.36 µM
- TGI (SR leukemia): 7.58 µM
- GI50 (HOP-92 NSCLC): 1.86 µM
- TGI (HOP-92 NSCLC): 4.03 µM
- GI50 (SW-620 colon): 1.92 µM
- TGI (SW-620 colon): 4 µM
- GI50 (SN12C renal): 4.01 µM
- TGI (SN12C renal): 15 µM
- GI50 (CCRF-CEM leukemia): 1.73 µM
- TGI (CCRF-CEM leukemia): 3.95 µM
- GI50 (A549 NSCLC): 16.8 µM
- TGI (A549 NSCLC): 35.5 µM
- GI50 (MCF7 breast): 3.38 µM
- TGI (MCF7 breast): 14.8 µM
- GI50 (M14 melanoma): 7.57 µM
- TGI (M14 melanoma): 22 µM
- GI50 (HCC-2998 colon): 16.3 µM
- TGI (HCC-2998 colon): 31.3 µM
- GI50 (NCI-H460 lung): 18 µM
- TGI (NCI-H460 lung): 36.9 µM
- GI50 (OVCAR-3 ovarian): 2.07 µM
- TGI (OVCAR-3 ovarian): 3.94 µM
- GI50 (MOLT-4 leukemia): 2.06 µM
- TGI (MOLT-4 leukemia): 4.57 µM
- GI50 (RXF 393 renal): 2.4 µM
- TGI (RXF 393 renal): 7.55 µM
- GI50 (SK-MEL-5 melanoma): 13.8 µM
- TGI (SK-MEL-5 melanoma): 27.6 µM
- GI50 (HCT-116 colon): 1.67 µM
- TGI (HCT-116 colon): 3.41 µM
- GI50 (COLO 205 colon): 1.88 µM
- TGI (COLO 205 colon): 3.52 µM
- GI50 (NCI-H522 lung): 0.506 µM
- TGI (NCI-H522 lung): 1.27 µM
- GI50 (OVCAR-4 ovarian): 1.8 µM
- TGI (OVCAR-4 ovarian): 4.3 µM
- GI50 (SF-539 CNS): 13.7 µM
- TGI (SF-539 CNS): 27.2 µM
- GI50 (NCI-H226 lung): 15.6 µM
- TGI (NCI-H226 lung): 38.8 µM
- GI50 (HT29 colon): 2.92 µM
- TGI (HT29 colon): 8.91 µM
- GI50 (K-562 leukemia): 2.39 µM
- TGI (K-562 leukemia): 5.73 µM
- GI50 (DU-145 prostate): 8.62 µM
- TGI (DU-145 prostate): 22.3 µM
- GI50 (ACHN renal): 1.84 µM
- TGI (ACHN renal): 3.37 µM
- GI50 (UACC-62 melanoma): 3.05 µM
- TGI (UACC-62 melanoma): 12.3 µM
- GI50 (UO-31 renal): 1.39 µM
- TGI (UO-31 renal): 2.84 µM
- GI50 (SF-295 CNS): 16.3 µM
- TGI (SF-295 CNS): 32 µM
- GI50 (OVCAR-8 ovarian): 2.53 µM
- TGI (OVCAR-8 ovarian): 6.92 µM
- GI50 (BT-549 breast): 4.56 µM
- TGI (BT-549 breast): 15.7 µM
- GI50 (MALME-3M melanoma): 1.6 µM
- TGI (MALME-3M melanoma): 3.29 µM
- GI50 (MDA-MB-231 breast): 9.3 µM
- TGI (MDA-MB-231 breast): 24.6 µM
- GI50 (A498 renal): 10.9 µM
- TGI (A498 renal): 26.7 µM
- GI50 (U251 CNS): 11.9 µM
- TGI (U251 CNS): 25.2 µM
- GI50 (SNB-19 CNS): 16.5 µM
- TGI (SNB-19 CNS): 32.7 µM
- GI50 (IGROV1 ovarian): 1.75 µM
- TGI (IGROV1 ovarian): 3.5 µM
- GI50 (SNB-75 CNS): 13.7 µM
- TGI (SNB-75 CNS): 29.3 µM
- GI50 (HL-60(TB) leukemia): 1.99 µM
- TGI (HL-60(TB) leukemia): 4.19 µM
- GI50 (HCT-15 colon): 1.73 µM
- TGI (HCT-15 colon): 3.61 µM
- GI50 (MDA-MB-435): 10.6 µM
- TGI (MDA-MB-435): 23.5 µM
- GI50 (PC-3 prostate): 6.46 µM
- TGI (PC-3 prostate): 20.7 µM
- GI50 (UACC-257 melanoma): 4.06 µM
- TGI (UACC-257 melanoma): 15.4 µM
- GI50 (786-0 renal): 2.38 µM
- TGI (786-0 renal): 6.28 µM
- GI50 (NCI-H23 lung): 5.36 µM
- TGI (NCI-H23 lung): 19.6 µM
- GI50 (SF-268 CNS): 13.2 µM
- TGI (SF-268 CNS): 29.5 µM
- GI50 (HS 578T breast): 4.88 µM
- TGI (HS 578T breast): 27.7 µM
- GI50 (NCI/ADR-RES ovarian): 18.4 µM
- TGI (NCI/ADR-RES ovarian): 45.3 µM
- GI50 (LOX IMVI melanoma): 1.03 µM
- TGI (LOX IMVI melanoma): 3 µM
- GI50 (RPMI-8226 leukemia): 2.22 µM
- TGI (RPMI-8226 leukemia): 4.96 µM
- GI50 (T-47D breast): 1.98 µM
- TGI (T-47D breast): 4.46 µM
- GI50 (OVCAR-5 ovarian): 16.4 µM
- TGI (OVCAR-5 ovarian): 32.8 µM
